Data: ChEMBL document CHEMBL6103620, “Gymnopeptides C and D, Highly N-Methylated Fungal Cyclopeptides” (J Nat Prod, 2025)
Calls of active or inactive are those of the source. The rule behind the calls is not given here. Square brackets hold non-standard residues; d marks the D form. Peptide text beside a SMILES is read from it. ξ: configuration not given here. Thr(3ξ) = CC(O)[C@H](N)C(=O)O; NMeV = CN[C@H](C(=O)O)C(C)C; NMeA = CN[C@@H](C)C(=O)O; Sar = CNCC(=O)O

How the values were obtained:
HaCaT = assay: Antiproliferative activity against human HaCaT cells assessed as reduction in cell viability incubated for 72 hrs by MTT assay; type: functional, cell-based
A-375 [1] = assay: Inhibition of cell migration in human A-375 cells assessed as decrease in number of cell migration into lower compartment at 50 nM measured after 16 hrs; type: functional, cell-based
A-375 [2] = assay: Inhibition of cell migration in human A-375 cells assessed as reduction in cell numbers in wound area at 5 nM incubated for 72 hrs by methyl green staining based scratch assay; type: functional
A-375 [3] = assay: Induction of apoptosis in human A-375 cells assessed as increase in caspase-3 activity at 50 nM incubated for 24 hrs; type: functional, cell-based
A-375 [4] = assay: Antiproliferative activity against human A-375 cells assessed as reduction in cell viability incubated for 72 hrs by MTT assay; type: functional, cell-based

## CC(C)[C@@H]1NC(=O)[C@H](C(C)C)N(C)C(=O)[C@H](C)NC(=O)[C@H]([C@H](C)O)N(C)C(=O)[C@H](C(C)C)NC(=O)[C@@H]2CCCN2C(=O)[C@H](C(C)C)NC(=O)[C@H](C)N(C)C(=O)[C@H](C(C)C)N(C)C(=O)CN(C)C(=O)[C@H](C)NC(=O)[C@H](C(C)C)N(C)C(=O)[C@H](C)NC(=O)[C@H](C(C)C)N(C)C(=O)[C@H](C(C)C)NC(=O)[C@H](C(C)C)N(C)C(=O)[C@H](C(C)C)NC(=O)[C@H](C(C)C)N(C)C1=O
HaCaT
  Activity: Dose-dependent-effect
A-375 [1]
  inhibition: Active
A-375 [2]
  inhibition: Active; Significant Effect Observed
A-375 [3]
  Activity: Active
A-375 [4]
  Activity: Dose-dependent-effect

## CC(C)[C@@H]1NC(=O)[C@H](C(C)C)N(C)C(=O)[C@H]([C@@H](C)O)NC(=O)[C@H](C(C)C)N(C)C(=O)[C@H](C(C)C)NC(=O)[C@H](C(C)C)N(C)C(=O)[C@H](C(C)C)NC(=O)[C@H](C(C)C)N(C)C(=O)[C@H](C(C)C)NC(=O)[C@H](C(C)C)N(C)C(=O)[C@H](C)NC(=O)[C@@H]([C@@H](C)O)N(C)C(=O)[C@H](C(C)C)NC(=O)[C@@H]2CCCN2C(=O)[C@H](C)NC(=O)[C@H](C)N(C)C(=O)[C@H](C(C)C)N(C)C(=O)CN(C)C1=O
HaCaT
  Activity: Dose-dependent-effect
A-375 [1]
  inhibition: Active
A-375 [2]
  inhibition: Active; Significant Effect Observed
A-375 [3]
  Activity: Active
A-375 [4]
  Activity: Dose-dependent-effect

## CC(C)[C@@H]1NC(=O)[C@H](C(C)C)N(C)C(=O)[C@H](C)NC(=O)[C@H](C(C)C)N(C)C(=O)[C@H](C(C)C)NC(=O)[C@H](C(C)C)N(C)C(=O)[C@H](C(C)C)NC(=O)[C@H](C(C)C)N(C)C(=O)[C@H](C(C)O)NC(=O)[C@H](C(C)C)N(C)C(=O)[C@H](C)NC(=O)[C@H](C(C)C)N(C)C(=O)[C@H](C)NC(=O)CN(C)C(=O)[C@H](C(C)C)NC(=O)[C@H](C)N(C)C(=O)[C@H](C(C)C)N(C)C(=O)CN(C)C1=O (stereo not given in full) (cyclo(A[NMeV]A[NMeV][Thr(3ξ)][NMeV]V[NMeV]V[NMeV]A[NMeV]V[Sar][NMeV][NMeA]V[Sar]))
HaCaT
  Activity: Dose-dependent-effect
A-375 [1]
  inhibition: Active
A-375 [2]
  inhibition: Active; Significant Effect Observed
A-375 [3]
  Activity: Active
A-375 [4]
  Activity: Dose-dependent-effect

## CC(C)[C@@H]1NC(=O)[C@H](C(C)C)N(C)C(=O)[C@H](C)NC(=O)[C@H](C(C)C)N(C)C(=O)[C@H](C(C)C)NC(=O)[C@H](C(C)C)N(C)C(=O)[C@H](C(C)C)NC(=O)[C@H](C(C)C)N(C)C(=O)[C@H](CO)NC(=O)[C@H](C(C)C)N(C)C(=O)[C@H](C)NC(=O)[C@H](C(C)C)N(C)C(=O)[C@H](C)NC(=O)CN(C)C(=O)[C@H](C(C)C)NC(=O)[C@H](C)N(C)C(=O)[C@H](C(C)C)N(C)C(=O)CN(C)C1=O (cyclo(A[NMeV]A[NMeV]S[NMeV]V[NMeV]V[NMeV]A[NMeV]V[Sar][NMeV][NMeA]V[Sar]))
HaCaT
  Activity: Dose-dependent-effect
A-375 [1]
  inhibition: Active
A-375 [2]
  inhibition: Active; Significant Effect Observed
A-375 [3]
  Activity: Active; Significant Effect Was Not Observed
A-375 [4]
  Activity: Dose-dependent-effect
